# Patent US10640748B2, “Oligodendroglial cell culturing methods and in methods for treating neurodegenerative disorders by using thyroid hormones or analogues” (NeuOrphan Pty Ltd, priority 2014, dated 2020)
# System: hESC-derived OPCs
# Test: Stage VI terminal differentiation of hESC-derived OPCs
# Assay type: cell-based, human
# Protocol: Stage VI; for terminal differentiation, these cells were plated onto poly-L-ornithine (10 μg/mL, Sigma-Aldrich) and mouse laminin (10 μg/mL, Life technologies) coated plates in N2/B27 medium supplemented with T3 (50 ng/mL, Sigma-Aldrich) for 21 days to induce pre-OLs.
smiles,measurement,value
"N[C@@H](Cc1cc(I)c(Oc2ccc(O)c(I)c2)c(I)c1)C(=O)O [T3, Triiodothyronine]",terminal differentiation of OPCs into O4+ pre-OLs and MBP+ pre-myelinating OLs,promoted terminal differentiation
